This note sets out measurements from US9272987B2, “Diazeniumdiolate cyclohexyl derivatives” (Merck Sharp & Dohme Corp., priority 2011, dated 2016).

For the assay, the system named is Male beagle dogs. In words: canine telemetry protocol, blood pressure reduction efficacy. It counts as in vivo. Conditions: change from baseline, 3 mg/kg oral gavage; for ΔPP (mmHg) 1-6 h / ΔPP (mmHg) 6-12 h / ΔPP (mmHg) 12-18 h: pulse pressure; for ΔSBP (mmHg) 1-6 h / ΔSBP (mmHg) 6-12 h / ΔSBP (mmHg) 12-18 h: systolic blood pressure. As for the experimental part:
Compounds of the invention were evaluated for blood pressure reduction efficacy using the following canine telemetry protocol described below.
Male beagle dogs (approximately 1-3 years old) with a body weight of between 10 and 16 kg were surgically implanted with DSI radiotelemetry devices (model: TL11M2-D70-PCT). Briefly, under an inhalant anesthesia, isoflurane/oxygen mixture (1-3.5%/to effect), the body of the telemetry device was positioned and secured intra-abdominally. Subsequently, the arterial catheter of the telemetry device was passed subcutaneously to the inguinal area and introduced into the femoral artery and advanced to the level of the descending aorta. The catheter was secured with 2-0 silk ligatures. The muscle and underlying fascia was closed over the catheter using absorbable suture and the skin was closed using non-absorbable suture. The animals were allowed a minimum recovery period of 2 weeks between surgery and the evaluation of test compounds.
Compound evaluation consisted of a 3 day paradigm at a 3 mg/kg dose. On the first day, no compounds were administered during a 24 hour period of baseline data collection. Blood pressure and heart rate data were collected continuously for one minute periods at 10 minute intervals. On the days of compound administration half the animals received test article with the other half receiving the vehicle used for compound formulation. All test materials were administered by oral gavage in a volume of 1 mL/kg. Data are expressed either as raw values (mm Hg or beats per minute) or as the change from baseline (average value for about 12 hours in low activity period prior to dosing). Change is SBP (systolic blood pressure) and PP (pulse pressure) over time is shown below: […]

On to “O^2-(trans-4-phenylcyclohexyl) 1-(N-tert-butyl-N-methylamino)diazen-1-ium-1,2-diolate [Example 33]”, for which the “ΔPP (mmHg) 1-6 h” value is listed as −7 mmHg, the “ΔPP (mmHg) 6-12 h” value was −12 mmHg, the “ΔPP (mmHg) 12-18 h” value was −11 mmHg and the “ΔSBP (mmHg) 1-6 h” value is given as −9 mmHg. The “ΔSBP (mmHg) 6-12 h” value is reported as −15 mmHg and the “ΔSBP (mmHg) 12-18 h” value is −9 mmHg.
Regarding `CN(/[N+]([O-])=N/OC1CCC(F)(F)CC1)C(C)(C)C` [Example 9, O^2-(4,4-difluorocyclohexyl) 1-(N-tert-butyl-N-methylamino)diazen-1-ium-1,2-diolate], the “ΔPP (mmHg) 1-6 h” value is −7 mmHg, the “ΔPP (mmHg) 6-12 h” value was −8 mmHg, the “ΔPP (mmHg) 12-18 h” value is −8 mmHg and the “ΔSBP (mmHg) 1-6 h” value is given as −8 mmHg. The “ΔSBP (mmHg) 6-12 h” value is recorded as −12 mmHg and the “ΔSBP (mmHg) 12-18 h” value is −13 mmHg.
Take “O^2-(trans-4-hydroxy-4-phenylcyclohexyl) 1-(N-tert-butyl-N-methylamino)diazen-1-ium-1,2-diolate [Example 19]”: the “ΔPP (mmHg) 1-6 h” value was −7 mmHg, the “ΔPP (mmHg) 6-12 h” value is −9 mmHg, the “ΔPP (mmHg) 12-18 h” value is listed as −9 mmHg and the “ΔSBP (mmHg) 1-6 h” value was −11 mmHg. Moreover, the “ΔSBP (mmHg) 6-12 h” value is −12 mmHg and the “ΔSBP (mmHg) 12-18 h” value is −15 mmHg.
On to `CN(/[N+]([O-])=N/OC1CCCCC1)C(C)(C)C` [Example 2], for which the “ΔPP (mmHg) 1-6 h” value is −9 mmHg, the “ΔPP (mmHg) 6-12 h” value is recorded as −11 mmHg, the “ΔPP (mmHg) 12-18 h” value is given as −12 mmHg and the “ΔSBP (mmHg) 1-6 h” value is given as −11 mmHg. The “ΔSBP (mmHg) 6-12 h” value is −9 mmHg and the “ΔSBP (mmHg) 12-18 h” value is recorded as −9 mmHg.
